Patent US9408391B2, “Fungicide composition comprising a tetrazolyloxime derivative and a thiazolylpiperidine derivative” (BAYER INTELLECTUAL PROPERTY GMBH, priority 2010, dated 2016)
Read-outs that look alike come from different tables or passages of the source.

Assays:
Venturia inaequalis = test: Venturia test (apples)/preventive; settings: apple plants, preventive spray, 100 ppm a.i., evaluated 10 days after inoculation
Procedure: Venturia Test (Apples)/Preventive
Solvent: 24,5 parts by weight of acetone • 24,5 parts by weight of dimethylacetamide
Emulsifier: part by weight of alkylaryl polyglycol ether
After the spray coating has dried on the plants are inoculated with an aqueous conidia suspension of the causal agent of apple scab (Venturia inaequalis) and then remain for 1 day in an incubation cabinet at approximately 20° C. and a relative atmospheric humidity of 100%.
The plants are then placed in a greenhouse at approximately 21° C. and a relative atmospheric humidity of approximately 90%.
The test is evaluated 10 days after the inoculation.

Phytophthora infestans = type: in vivo; settings: tomato plants, preventive spray, evaluated 3 days after inoculation

SMILES | Efficacy in % found (Venturia inaequalis) [%] | Efficacy in % found (Phytophthora infestans; 1 ppm a.i.) [%] | Efficacy in % found (Phytophthora infestans; 0.01 ppm a.i.) [%]
Cn1nnnc1/C(=N\OCc1cccc(NC(=O)OC(C)(C)C)n1)c1ccccc1 [(A2)] | 22 | 46 | –
Cc1cc(C(F)(F)F)nn1CC(=O)N1CCC(c2nc(C3=NOC(c4c(F)cccc4F)C3)cs2)CC1 (stereo not shown) [(B2), 1-(4-{4-[5-(2,6-difluorophenyl)-4,5-dihydro-1,2-oxazol-3-yl]-1,3-thiazol-2-yl}piperidin-1-yl)-2-[5-methyl-3-(trifluoromethyl)-1H-pyrazol-1-yl]ethanone] | 0 | – | 30
